Reference: ChEMBL document CHEMBL1201862, “PubChem BioAssay data set” (2004)
Activity calls are given as the source filed them.

Experiments:
Beta-lactamase [1] = target: Beta-lactamase (Salmonella choleraesuis (strain SC-B67), UniProt Q5J463); experiment: Epi-absorbance-based counterscreen for selective VIM-2 inhibitors: dose response biochemical high throughput screening assay to identify inhibitors of TEM-1 serine-beta-lactamase.
Beta-lactamase [2] = target: T1, Beta-lactamase (Pseudomonas aeruginosa, UniProt Q79MP6); experiment: inhibition of IMP-1 beta-lactamase activity – biochemical, epi-absorbance, selectivity assay for VIM-2 inhibitor project, dose response (AID 1920)
T1 sequence (Q79MP6 whole entry): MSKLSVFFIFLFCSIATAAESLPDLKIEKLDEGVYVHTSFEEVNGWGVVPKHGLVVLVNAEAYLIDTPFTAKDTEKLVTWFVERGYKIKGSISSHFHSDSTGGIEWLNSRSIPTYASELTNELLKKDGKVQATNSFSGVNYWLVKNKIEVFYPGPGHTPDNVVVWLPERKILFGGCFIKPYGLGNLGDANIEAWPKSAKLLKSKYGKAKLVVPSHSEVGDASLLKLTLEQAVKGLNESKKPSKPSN

Beta Lactamase [3] = target: T2, Beta Lactamase (Pseudomonas aeruginosa, UniProt Q932Y6); experiment: concentration-dependent VIM-2 enzyme inhibition – biochemical, epi-absorbance readout, selective inhibitors, dose response (AID 1919)
T2 sequence (Q932Y6 whole entry): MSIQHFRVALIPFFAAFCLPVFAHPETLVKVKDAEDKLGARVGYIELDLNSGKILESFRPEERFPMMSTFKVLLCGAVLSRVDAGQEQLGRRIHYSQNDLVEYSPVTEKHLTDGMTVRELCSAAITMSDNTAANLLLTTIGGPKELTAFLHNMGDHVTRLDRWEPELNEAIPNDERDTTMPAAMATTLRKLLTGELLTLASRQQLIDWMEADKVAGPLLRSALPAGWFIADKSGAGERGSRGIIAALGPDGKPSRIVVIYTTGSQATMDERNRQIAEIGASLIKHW

Beta-lactamase [4] = target: T1, Beta-lactamase; experiment: […] counterscreen for selective VIM-2 inhibitors: dose response biochemical high throughput screening assay to identify inhibitors of IMP-1 metallo-beta-lactamase.
Beta Lactamase [5] = target: T2, Beta Lactamase; experiment: VIM-2 CCF2 hydrolysis inhibition, assay artifact filter – biochemical, FRET readout, CCF2 substrate, artefact control for selective VIM-2 inhibitor project, dose response (AID 1926)
cells [6] = format: functional, cell-based
cells [7] = format: functional, cell-based; remark: listed apart in the source
[8] = target: Protein disulfide-isomerase (Homo sapiens, UniProt P07237); experiment: inhibition of PDI-mediated insulin reduction – biochemical, turbidity, dry powder samples, set 2, confirmation (AID 652146)
Protein disulfide-isomerase, sequence (P07237 whole entry, the tested form may be a part): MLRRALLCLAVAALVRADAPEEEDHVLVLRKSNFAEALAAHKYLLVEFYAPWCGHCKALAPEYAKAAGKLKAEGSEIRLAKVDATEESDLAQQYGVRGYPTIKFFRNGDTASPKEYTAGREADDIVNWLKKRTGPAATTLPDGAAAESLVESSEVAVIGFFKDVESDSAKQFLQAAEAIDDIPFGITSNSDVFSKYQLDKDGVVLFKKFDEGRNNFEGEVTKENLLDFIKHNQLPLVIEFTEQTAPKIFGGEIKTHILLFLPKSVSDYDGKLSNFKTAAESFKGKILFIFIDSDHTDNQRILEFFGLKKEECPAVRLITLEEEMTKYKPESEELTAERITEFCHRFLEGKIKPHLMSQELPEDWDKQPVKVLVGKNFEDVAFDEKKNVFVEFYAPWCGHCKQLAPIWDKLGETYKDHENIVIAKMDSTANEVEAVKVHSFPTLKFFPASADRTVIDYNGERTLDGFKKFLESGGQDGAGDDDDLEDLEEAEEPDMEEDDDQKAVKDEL

[9] = target: Disintegrin and metalloproteinase domain-containing protein 17 (Homo sapiens, UniProt P78536); experiment: exosite inhibitors of ADAM17, dose response, biochemical (AID 743260)
Disintegrin and metalloproteinase domain-containing protein 17, sequence (P78536 whole entry, the tested form may be a part): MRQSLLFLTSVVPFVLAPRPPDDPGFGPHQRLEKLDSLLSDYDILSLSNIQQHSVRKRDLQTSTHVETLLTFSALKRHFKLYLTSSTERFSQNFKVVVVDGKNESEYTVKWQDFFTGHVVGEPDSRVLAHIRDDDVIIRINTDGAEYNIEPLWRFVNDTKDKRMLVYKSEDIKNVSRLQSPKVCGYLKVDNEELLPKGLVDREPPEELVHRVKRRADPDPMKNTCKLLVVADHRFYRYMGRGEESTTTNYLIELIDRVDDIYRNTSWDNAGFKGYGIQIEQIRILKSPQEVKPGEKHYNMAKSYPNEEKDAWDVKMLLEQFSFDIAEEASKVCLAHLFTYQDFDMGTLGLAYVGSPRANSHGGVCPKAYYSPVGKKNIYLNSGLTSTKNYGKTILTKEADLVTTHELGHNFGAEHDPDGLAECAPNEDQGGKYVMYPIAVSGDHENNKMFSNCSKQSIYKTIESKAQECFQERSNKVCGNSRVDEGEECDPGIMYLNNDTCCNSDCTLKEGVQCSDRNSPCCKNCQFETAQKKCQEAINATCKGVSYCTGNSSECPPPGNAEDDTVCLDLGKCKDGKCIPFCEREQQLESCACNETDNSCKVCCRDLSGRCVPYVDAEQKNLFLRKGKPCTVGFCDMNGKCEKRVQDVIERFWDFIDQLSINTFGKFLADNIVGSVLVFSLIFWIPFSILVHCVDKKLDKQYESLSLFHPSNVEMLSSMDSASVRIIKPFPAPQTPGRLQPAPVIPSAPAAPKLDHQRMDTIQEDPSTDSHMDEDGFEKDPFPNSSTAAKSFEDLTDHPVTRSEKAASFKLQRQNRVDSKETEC

[10] = inhibition of ADAM10 peptide cleavage – biochemical, FRET peptide substrate, recombinant human ADAM10, selectivity assay for ADAM17 exosite inhibitor project, dose response (AID 743259);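 also: ADAM10 enzyme cleaving a FRET peptide substrate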
[11] = target: Endoplasmic reticulum aminopeptidase 1 (Homo sapiens, UniProt Q9NZ08); experiment: inhibition of human ERAP1 enzyme activity – biochemical, cherry-pick, set 2, plate reader, dose response (AID 743314)
Endoplasmic reticulum aminopeptidase 1, sequence (Q9NZ08 whole entry): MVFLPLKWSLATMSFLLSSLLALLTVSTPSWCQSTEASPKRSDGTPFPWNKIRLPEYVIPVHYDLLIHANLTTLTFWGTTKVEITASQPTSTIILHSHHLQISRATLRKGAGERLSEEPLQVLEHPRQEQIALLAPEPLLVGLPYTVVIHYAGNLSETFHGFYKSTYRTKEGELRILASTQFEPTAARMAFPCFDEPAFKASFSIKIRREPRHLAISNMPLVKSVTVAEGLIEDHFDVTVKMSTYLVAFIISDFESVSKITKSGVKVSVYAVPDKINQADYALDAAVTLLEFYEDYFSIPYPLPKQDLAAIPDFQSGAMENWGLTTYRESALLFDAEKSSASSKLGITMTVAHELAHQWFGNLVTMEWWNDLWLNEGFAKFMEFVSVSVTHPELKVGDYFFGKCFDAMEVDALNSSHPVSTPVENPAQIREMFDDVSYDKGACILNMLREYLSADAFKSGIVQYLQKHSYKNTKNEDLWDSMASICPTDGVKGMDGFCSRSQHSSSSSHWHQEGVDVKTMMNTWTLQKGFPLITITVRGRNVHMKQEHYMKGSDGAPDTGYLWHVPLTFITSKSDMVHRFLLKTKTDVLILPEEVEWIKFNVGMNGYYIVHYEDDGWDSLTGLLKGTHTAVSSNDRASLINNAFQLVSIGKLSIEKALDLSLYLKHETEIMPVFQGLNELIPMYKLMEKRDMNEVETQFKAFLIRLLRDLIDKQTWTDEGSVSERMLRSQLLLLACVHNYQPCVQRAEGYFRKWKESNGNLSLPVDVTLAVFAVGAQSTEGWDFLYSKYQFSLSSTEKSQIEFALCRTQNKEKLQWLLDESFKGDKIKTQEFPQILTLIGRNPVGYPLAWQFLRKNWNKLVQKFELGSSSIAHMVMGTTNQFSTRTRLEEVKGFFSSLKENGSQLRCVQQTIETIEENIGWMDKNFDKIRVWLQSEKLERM

Beta-galactosidase = Beta-galactosidase (Escherichia coli, UniProt Q8VNN2); experiment: detection-enzyme interference by beta-gal modulators – biochemical, E. coli enzyme, set 3, artefact control for CCR6 antagonist project, dose response (AID 504712); format: functional
[12] = target: T3, Carboxy-terminal domain RNA polymerase II polypeptide A small phosphatase 1 (Homo sapiens, UniProt Q9GZU7); experiment: CTDSP1 inhibitors, concentration-response, biochemical, absorbance readout, ultra-high-throughput screen actives (AID 540297); format: functional
T3 sequence (Q9GZU7 whole entry): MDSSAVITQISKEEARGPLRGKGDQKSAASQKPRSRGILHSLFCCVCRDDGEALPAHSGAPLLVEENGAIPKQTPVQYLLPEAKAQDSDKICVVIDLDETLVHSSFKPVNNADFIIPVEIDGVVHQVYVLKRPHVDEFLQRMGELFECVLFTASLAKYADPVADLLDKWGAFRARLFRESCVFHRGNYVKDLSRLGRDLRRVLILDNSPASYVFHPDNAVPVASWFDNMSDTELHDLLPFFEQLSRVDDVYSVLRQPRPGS

[13] = target: DNA (cytosine-5)-methyltransferase 1 (Homo sapiens, UniProt P26358); experiment: inhibition of DNA methylation by DNMT1 – biochemical, fluorescent molecular beacon, confirmation (AID 602386); format: functional
DNA (cytosine-5)-methyltransferase 1, sequence (P26358 whole entry): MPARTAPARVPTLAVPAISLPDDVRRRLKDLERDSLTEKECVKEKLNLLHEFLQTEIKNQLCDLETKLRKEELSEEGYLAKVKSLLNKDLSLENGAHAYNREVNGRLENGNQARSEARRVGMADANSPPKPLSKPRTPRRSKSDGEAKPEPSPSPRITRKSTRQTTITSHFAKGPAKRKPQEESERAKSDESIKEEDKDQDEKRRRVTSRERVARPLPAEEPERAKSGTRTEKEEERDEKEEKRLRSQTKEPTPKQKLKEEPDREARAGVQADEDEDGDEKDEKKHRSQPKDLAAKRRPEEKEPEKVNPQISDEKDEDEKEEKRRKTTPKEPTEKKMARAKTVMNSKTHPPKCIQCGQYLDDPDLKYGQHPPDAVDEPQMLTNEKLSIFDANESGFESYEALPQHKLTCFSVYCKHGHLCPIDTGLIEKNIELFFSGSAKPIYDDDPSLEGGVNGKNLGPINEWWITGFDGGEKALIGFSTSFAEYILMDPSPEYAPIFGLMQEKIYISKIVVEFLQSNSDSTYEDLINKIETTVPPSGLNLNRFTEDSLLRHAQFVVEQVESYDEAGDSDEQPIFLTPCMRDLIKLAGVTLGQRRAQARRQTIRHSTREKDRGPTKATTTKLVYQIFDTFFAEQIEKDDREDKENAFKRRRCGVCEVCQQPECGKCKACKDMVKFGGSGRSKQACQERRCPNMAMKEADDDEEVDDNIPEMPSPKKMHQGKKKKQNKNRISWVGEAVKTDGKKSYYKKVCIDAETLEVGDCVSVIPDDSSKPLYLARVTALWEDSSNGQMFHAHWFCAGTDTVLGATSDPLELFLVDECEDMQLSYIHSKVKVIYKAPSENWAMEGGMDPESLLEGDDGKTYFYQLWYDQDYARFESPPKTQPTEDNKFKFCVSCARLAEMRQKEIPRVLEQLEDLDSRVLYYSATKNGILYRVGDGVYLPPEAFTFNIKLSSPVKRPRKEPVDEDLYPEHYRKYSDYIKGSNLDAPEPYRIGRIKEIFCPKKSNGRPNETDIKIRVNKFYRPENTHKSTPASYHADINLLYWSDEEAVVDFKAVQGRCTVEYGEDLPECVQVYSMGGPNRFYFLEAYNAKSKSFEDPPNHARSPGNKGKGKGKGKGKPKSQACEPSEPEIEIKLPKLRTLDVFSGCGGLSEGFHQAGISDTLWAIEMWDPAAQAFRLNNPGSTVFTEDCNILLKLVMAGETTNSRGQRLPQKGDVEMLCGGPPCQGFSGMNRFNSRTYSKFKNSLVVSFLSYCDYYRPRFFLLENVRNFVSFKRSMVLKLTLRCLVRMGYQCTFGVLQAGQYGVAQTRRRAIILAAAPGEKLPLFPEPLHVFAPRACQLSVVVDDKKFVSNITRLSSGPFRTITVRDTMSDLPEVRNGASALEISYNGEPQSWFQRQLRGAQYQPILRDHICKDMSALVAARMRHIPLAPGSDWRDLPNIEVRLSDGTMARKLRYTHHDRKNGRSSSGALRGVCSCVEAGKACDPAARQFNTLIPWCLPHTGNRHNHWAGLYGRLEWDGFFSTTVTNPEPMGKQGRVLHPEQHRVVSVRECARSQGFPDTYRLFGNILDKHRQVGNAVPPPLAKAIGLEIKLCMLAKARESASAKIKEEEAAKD

[14] = target: T4, Small ubiquitin-related modifier 2 (Homo sapiens, UniProt P61956); experiment: disruption of SUMO2 interaction with SIM peptide – biochemical, fluorescence polarization, uHTS hits, selectivity assay for SUMO1 interaction inhibitor project, dose response (AID 624385); format: functional; settings: read-out: IC50_Mean
T4 sequence (P61956 whole entry): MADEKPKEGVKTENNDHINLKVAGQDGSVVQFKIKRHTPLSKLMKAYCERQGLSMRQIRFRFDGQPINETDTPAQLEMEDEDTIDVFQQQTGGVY

[15] = target: T5, Small ubiquitin-related modifier 1 (Homo sapiens, UniProt P63165); experiment: SUMO1 protein interaction blockers, potency – biochemical, fluorescence polarization, uHTS hits, dose response (AID 624382); format: functional; settings: read-out: IC50_Mean
T5 sequence (P63165 whole entry): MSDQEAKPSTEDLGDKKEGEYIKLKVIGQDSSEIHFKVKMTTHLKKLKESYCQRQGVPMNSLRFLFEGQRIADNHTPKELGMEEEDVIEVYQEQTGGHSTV

[16] = target: T4, Small ubiquitin-related modifier 2; experiment: SUMO2 binding disruption by SUMO1 hits – biochemical, FRET, human SUMO2, uHTS hits, selectivity assay for SUMO1 interaction inhibitor project, dose response (AID 624384); format: functional; settings: read-out: IC50_Mean
[17] = target: T5, Small ubiquitin-related modifier 1; experiment: SUMO1 protein-protein binding blockers, potency – biochemical, FRET, dose response (AID 624383); format: functional; settings: read-out: IC50_Mean
[18] = viability loss in HeLa cells – cytotoxicity control for MgcRacGAP inhibitor project, dose response (AID 624300); format: functional
[19] = target: T6, Rac GTPase-activating protein 1 (Homo sapiens, UniProt Q9H0H5); experiment: blockers of MgcRacGAP-driven Rac1 GTP hydrolysis – biochemical, ADP Hunter fluorescence, primary and confirmatory, confirmation (AID 624330); format: functional
T6 sequence (Q9H0H5 whole entry): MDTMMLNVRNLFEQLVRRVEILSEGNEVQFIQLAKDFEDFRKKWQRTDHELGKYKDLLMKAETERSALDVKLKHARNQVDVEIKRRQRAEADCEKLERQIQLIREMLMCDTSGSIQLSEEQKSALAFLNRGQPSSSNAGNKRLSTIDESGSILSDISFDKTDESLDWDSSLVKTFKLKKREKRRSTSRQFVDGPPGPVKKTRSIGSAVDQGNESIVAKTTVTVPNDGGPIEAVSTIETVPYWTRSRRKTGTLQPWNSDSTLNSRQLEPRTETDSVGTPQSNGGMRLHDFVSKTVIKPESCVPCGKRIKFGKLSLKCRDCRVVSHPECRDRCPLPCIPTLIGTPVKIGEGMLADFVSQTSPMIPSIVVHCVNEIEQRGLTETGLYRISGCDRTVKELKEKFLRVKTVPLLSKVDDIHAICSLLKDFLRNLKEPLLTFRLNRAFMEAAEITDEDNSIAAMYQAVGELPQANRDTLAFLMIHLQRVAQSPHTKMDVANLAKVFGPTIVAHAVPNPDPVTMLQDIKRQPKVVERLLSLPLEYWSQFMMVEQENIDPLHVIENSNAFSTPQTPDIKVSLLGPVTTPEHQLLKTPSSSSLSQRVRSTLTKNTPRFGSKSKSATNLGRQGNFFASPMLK

[20] = intracellular Trypanosoma cruzi inhibitors in host cells – cell-based, plate reader, cherry-pick samples, set 3, dose response (AID 651818); format: functional;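 also: compounds incubated with infected cells for about four days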
[21] = A549 cell cytotoxicity, dose response, cytotoxicity control, plate reader, cherry-pick, antagonist series (AID 743412); format: functional, cell-based
[22] = toxicity toward HepG2 liver cells – cell-based, plate reader, cherry-pick, antagonist series, cytotoxicity control, dose response (AID 743416); format: functional
[23] = blockers of bursicon-stimulated LGR2 cAMP reporter – cell-based, HEK293, CRE-luciferase reporter, cherry pick, set 2, dose response (AID 743343); format: functional;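 also: transfected cells were stimulated with diluted bursicon conditioned medium after compound addition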
[24] = blockade of melanocortin 4 receptor signaling – cell-based, plate reader, cherry pick, counter-screen for LGR2 antagonist project, dose response (AID 743444); format: functional;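 also: transfected HEK 293 cells stimulated with alpha-MSH peptide; potency of inhibitors of the alpha-MSH evoked signal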
[25] = viability loss in HEK293 cells – cell-based, plate reader, cherry-picked samples, cytotoxicity control, dose response (AID 743446); format: functional
Vero = experiment: viability loss in Vero cells – cell-based, plate reader, cherry-pick samples, cytotoxicity control, dose response (AID 687020); format: functional; settings: Chlorocebus sabaeus
[26] = general mammalian cell viability loss – activator set, cherry-pick, cytotoxicity control for miR-122 modulator project, dose response (AID 720690); format: functional, cell-based;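 also: HEK293T human cells scored for general mammalian cytotoxicity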
[27] = target: T7, Oxysterols receptor LXR-beta (Homo sapiens, UniProt P55055); format: functional, cell-based;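 also: Cell-based luminescence dose-response assay of agonist activity at LXR, run as a confirmatory counterscreen to a daf-12 agonist screen; HEK293 cells with Gal4-LXR fusion and GAL4-driven luciferase reporter; agonist potency from rising luciferase signal of a Gal4-LXR reporter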
T7 sequence (P55055 whole entry): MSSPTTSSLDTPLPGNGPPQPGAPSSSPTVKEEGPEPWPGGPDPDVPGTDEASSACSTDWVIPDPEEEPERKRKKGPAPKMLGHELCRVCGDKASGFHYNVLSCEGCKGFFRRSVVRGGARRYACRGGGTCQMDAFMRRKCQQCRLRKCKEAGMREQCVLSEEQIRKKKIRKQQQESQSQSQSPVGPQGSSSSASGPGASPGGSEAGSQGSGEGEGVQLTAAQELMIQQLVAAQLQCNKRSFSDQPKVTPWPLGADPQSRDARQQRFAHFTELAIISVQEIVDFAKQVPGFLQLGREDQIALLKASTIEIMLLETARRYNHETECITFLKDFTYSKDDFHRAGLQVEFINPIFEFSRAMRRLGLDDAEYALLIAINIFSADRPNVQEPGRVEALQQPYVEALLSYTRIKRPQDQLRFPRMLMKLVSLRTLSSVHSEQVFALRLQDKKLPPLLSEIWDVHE

cells [28] = experiment: cells
[29] = target: T8, Scavenger receptor class B member 1 (Mus musculus, UniProt Q61009); experiment: mouse SR-BI DiI-HDL transfer blockers – ldlA[mSR-BI] CHO cells, fluorescence plate reader, dry powder, set 9, dose response (AID 623880); format: functional, cell-based
T8 sequence (Q61009 whole entry): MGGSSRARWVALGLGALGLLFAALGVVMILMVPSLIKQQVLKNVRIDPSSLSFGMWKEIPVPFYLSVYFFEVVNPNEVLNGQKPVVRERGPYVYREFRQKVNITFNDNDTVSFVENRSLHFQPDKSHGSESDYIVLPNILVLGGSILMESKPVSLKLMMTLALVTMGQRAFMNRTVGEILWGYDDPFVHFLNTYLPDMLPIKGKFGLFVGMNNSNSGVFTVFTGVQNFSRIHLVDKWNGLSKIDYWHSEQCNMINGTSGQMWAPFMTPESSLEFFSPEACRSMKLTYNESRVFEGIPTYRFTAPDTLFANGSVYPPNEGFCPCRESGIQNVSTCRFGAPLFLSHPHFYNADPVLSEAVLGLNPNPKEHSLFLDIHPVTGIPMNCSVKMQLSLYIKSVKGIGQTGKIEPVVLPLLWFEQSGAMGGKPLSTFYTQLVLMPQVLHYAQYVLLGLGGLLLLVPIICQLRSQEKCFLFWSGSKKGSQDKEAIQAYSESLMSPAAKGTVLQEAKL

[30] = target: T8, Scavenger receptor class B member 1; experiment: blockers of DiI-HDL lipid transfer via SR-BI – cell-based, ldlA[mSR-BI] CHO, DiI fluorescence, dry powder, set 10, dose response (AID 624029); format: functional

Beta-lactamase (Salmonella choleraesuis (strain SC-B67), UniProt Q5J463), sequence (Q5J463 whole entry): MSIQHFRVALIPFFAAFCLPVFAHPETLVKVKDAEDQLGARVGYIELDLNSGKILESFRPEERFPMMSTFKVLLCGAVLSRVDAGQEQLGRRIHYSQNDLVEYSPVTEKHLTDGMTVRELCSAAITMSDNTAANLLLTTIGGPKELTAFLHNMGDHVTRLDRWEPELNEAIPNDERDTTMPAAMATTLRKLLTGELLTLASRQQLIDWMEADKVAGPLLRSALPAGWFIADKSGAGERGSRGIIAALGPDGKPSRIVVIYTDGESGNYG

## COc1cc(OC)c(OC)cc1/C=N/NC(=O)CC1C(=O)NN=C1C (stereo unspecified)
Beta-lactamase [1]
  IC50: > 59.6 µM (inactive)
Beta-lactamase [2]
  IC50: > 59.6 µM (inactive)
Beta Lactamase [3]
  IC50: 4.22 µM (active)
Beta-lactamase [4]
  IC50: > 59.6 µM (inactive)
Beta Lactamase [5]
  IC50: 1.46 µM (active)

## CC(C)Cn1c(O)cc(=O)nc1SCC(=O)N1CCc2ccccc2C1
Cells [6]
  IC50: > 29.9 µM (inactive)
Cells [7]
  EC50: > 29.9 µM (inactive)

## C=CCOc1ccc(CN2CCC(CCOc3ccccc3)(C(=O)NC3CCCC3)CC2)cc1Cl
[8]
  AC50: > 30 µM (inactive)

## CCC(c1nnnn1Cc1ccccc1)N1CCC2(CC1)C(=O)NCN2c1ccccc1 (stereo unspecified)
[9]
  IC50: > 69.4 µM (inactive)
[10]
  IC50: > 69.4 µM (inactive)

## CCNC(=O)[C@H]1[C@H](CO)[C@H]2Cn3c(ccc(/C=C/c4ccccc4)c3=O)[C@@H]1N2C(=O)C1CCCC1
[11]
  AC50: 7.81 µM (active)

## C=CCOc1ccc(C=NNc2ccc(S(=O)(=O)Nc3ccccc3C(=O)O)cc2[N+](=O)[O-])cc1OC
Beta-galactosidase
  IC50: > 66.6 µM (inactive)
[12]
  IC50: 2 µM (active)
[13]
  IC50: 5.32 µM (active)
[14]
  IC50: 17.1 µM (active)
[15]
  IC50: 14 µM (active)
[16]
  IC50: > 66 µM (inactive)
[17]
  IC50: 51.2 µM (inactive)
[18]
  CC50: 100 µM (active)
[19]
  IC50: 65.6 µM (active)

## COc1ccc(CN(C)C[C@@H]2Oc3c(NC(=O)Nc4ccc(C(F)(F)F)cc4)cccc3C(=O)N([C@@H](C)CO)C[C@H]2C)cc1
[20]
  AC50: 2.27 µM (active)
[21]
  AC50: 13.6 µM (active)
[22]
  AC50: 7.95 µM (active)
[23]
  AC50: 16.6 µM (active)
[24]
  AC50: 11 µM (active)
[25]
  AC50: 3.5 µM (active)

## COc1ccc(S(=O)(=O)N(C)C[C@@H]2Oc3ncccc3C(=O)N([C@H](C)CO)C[C@@H]2C)cc1
[11]
  AC50: 8.41 µM (active)

## Cc1cc(F)cc(-c2cc(C(=O)NCC3CCCCC3)[nH]n2)c1
Vero
  AC50: 22.6 µM (active)

## N#C[C@@H]1[C@H](c2ccc(C#Cc3cccc(F)c3)cc2)[C@@H](CO)N1C(=O)C1CCC1
[21]
  AC50: 28.2 µM (active)
[22]
  AC50: > 47 µM (inactive)
[23]
  AC50: 9.75 µM (active)
[24]
  AC50: 8.46 µM (active)

## O=C(N1CCCC1)C1(CCOc2ccccc2)CCN(Cc2ccc(O)c(Cl)c2)CC1
[8]
  AC50: > 30 µM (inactive)

## O=C(C1CCCCC1)N1C[C@@H]2[C@H](c3ccccc31)[C@H](CO)N2Cc1ccccc1Cl
[26]
  AC50: 27.1 µM (active)

## Oc1cccc(-c2nnc(-c3cccc(O)c3)nn2)c1
[27]
  EC50: > 67.6 µM (inactive)
Cells [28]
  EC50: > 67.6 µM (inactive)

## CCn1c(=O)n(CC)c2cc(N3CCCC3)c(NC(=O)c3ccc(C)cc3)cc21
Vero
  AC50: 32.2 µM (active)

## Cc1ccc(S(=O)(=O)N2C[C@H]3C(=O)C[C@@H](c4ccccc4)N(S(=O)(=O)c4ccc(C)cc4)[C@H]3C[C@H]2c2cccc3ccccc23)cc1
[9]
  IC50: > 69.5 µM (inactive)
[10]
  IC50: > 69.5 µM (inactive)

## C[C@@H]1CN([C@H](C)CO)C(=O)c2cc(NC(=O)C3CCCCC3)ccc2O[C@H]1CN(C)C(=O)c1ccc(Cl)cc1
[29]
  AC50: 38.9 µM (active)
[30]
  AC50: > 70 µM (inactive)
